Measurements taken from patent US11613531B2, “Inhibitors of RHO associated coiled-coil containing protein kinase” (Kadmon Corporation, LLC, priority 2017, dated 2023).
Where two headings read alike, the source gives them in different places.

Tests used:
[1] = target: Recombinant ROCK2 (amino acids 1-552) (Homo sapiens (Human), UniProt O75116); experiment: Z′-Lyte kinase assay, ROCK2; type: biochemical; conditions: for inhibition at 0.5 µM: 0.5 μM compound; for inhibition at 0.5 µM / inhibition at 1 µM: read-out: ROCK2 % inh. @ [conc]; for inhibition at 1 µM: 1 μM compound
Chain of Recombinant ROCK2 (amino acids 1-552) (O75116 1-552): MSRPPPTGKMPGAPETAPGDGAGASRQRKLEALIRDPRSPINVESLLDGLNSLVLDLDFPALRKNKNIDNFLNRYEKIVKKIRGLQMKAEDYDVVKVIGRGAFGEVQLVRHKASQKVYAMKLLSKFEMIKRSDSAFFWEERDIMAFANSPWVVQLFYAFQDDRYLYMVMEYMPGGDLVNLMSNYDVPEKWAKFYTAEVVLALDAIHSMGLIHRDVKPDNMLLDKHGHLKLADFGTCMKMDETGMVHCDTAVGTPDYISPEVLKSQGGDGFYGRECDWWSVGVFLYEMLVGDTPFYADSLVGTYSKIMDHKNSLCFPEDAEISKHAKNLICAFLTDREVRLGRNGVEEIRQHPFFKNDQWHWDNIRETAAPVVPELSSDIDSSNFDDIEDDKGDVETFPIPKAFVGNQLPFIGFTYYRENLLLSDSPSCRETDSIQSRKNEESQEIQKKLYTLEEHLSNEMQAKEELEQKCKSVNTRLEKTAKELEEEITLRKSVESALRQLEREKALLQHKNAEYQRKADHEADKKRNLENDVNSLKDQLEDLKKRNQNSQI
Procedure, shortened: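 Recombinant human ROCK1 (aa 1-535) or ROCK2 (aa 1-552) activity read by Z′-Lyte kinase assay. Percent inhibition at 1 μM compound was normalized to DMSO control; IC50 from 9-point 2-fold serial dilutions by nonlinear regression.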

[2] = test system: ppMlc (T18/S19) levels in A7R5 cells; experiment: A7R5 in-cell ELISA (pMLC); type: cell-based, Rat; conditions: Rattus norvegicus, A7R5, A7R5 cells; for inhibition at 1 µM: 1 μM compound
Procedure, shortened: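 A7R5 rat aortic smooth muscle cells seeded 24 h, then treated 90 min with a 9-point 2-fold compound dilution series. Fixed cells probed for ppMlc (T18/S19) by colorimetric in-cell ELISA; cellular IC50 from nonlinear regression curve fit.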

[3] = test system: human ACTA2 gene promoter luciferase reporter in NIH3T3 cells; experiment: NIH3T3 Acta2-promoter driven-luciferase assay; type: cell-based; conditions: NIH3T3, 24 h, read-out: NIH3T3 Acta2-luc, IC50
Description: NIH3T3 Cells Acta2-Promoter Driven-Luciferase Assay.
A NIH3T3 cell line stably expressing a luciferase reporter driven by the human ACTA2 gene promoter (−1000-1 bp) was established (NIH3T3-Acta2-luciferase). The cells were plated to confluence and treated with the test compounds plus TGFβ1 for 24 hr. Cells were then lysed and luciferase activity was measured using the LightSwitch luciferase kit from Active Motif.
In vitro activities for the compounds were measured with Z′-lyte kinase kit (ThermoFisher Scientific). The percent inhibition rate was calculated by normalizing the kinase activity value obtained with 1 μM compound treatment against DMSO control value and then applied to the formula, [1-(compound/DMSO)]×100%. IC50s were calculated using the nonlinear regression curve fit function of the GraphPad Prism software with kinase activities data measured with 9 points 2-fold serial dilution of compounds treatment. In cell pMLC IC50s were calculated with data obtained from A7R5 cell experiments. A7R5 cells were treated with 9 points 2-fold serial dilution of compounds and ppMlc (T18/S19) levels were determined to calculate cellular IC50 values of the compounds using the nonlinear regression curve fit function of the GraphPad Prism software. NIH3T3 cells stably expressing ACTA2-promoter-driven-luciferase were applied to measure ROCK compounds functional IC50s in cells. Cells were plated in 96 well plates to confluence and treated with 9 points serial dilution of compounds in combination with TGFβ1 for 24 hr. Luciferase activities were measured and compound's IC50s were calculated using the nonlinear regression curve fit function of the GraphPad Prism software.
ROCK inhibitors can be effectively rank ordered by ACTA2-promoter-driven-luciferase reporter cell assay. NIH3T3 cells stably expressing ACTA2-promoter-driven-luciferase were plated in 96 well plates to confluence and treated with 9 points serial dilution of compounds in combination with TGFβ1 for 24 hr. Luciferase activities were measured and compound's IC50s were calculated. By this assay multiple compounds of the invention gave IC50s under 200 nM.

[4] = read-out: pMLC % inh A7R5 @ [conc]
[5] = 9 points 2-fold serial dilution
[6] = NIH3T3 cells, plus TGFβ1 for 24 hr

inhibition at 1 µM [1]	IC50 [1, 5]	IC50 ([2]; ppMlc (T18/S19))	SMILES	IC50 [1]	inhibition at 0.5 µM [1]	IC50 [2]	IC50 ([3]; with TGFβ1, 24 hr)	inhibition at 1 µM [2, 4]	IC50 [3, 6]	inhibition at 10 µM ([2]; 10 μM compound, read-out: pMLC % inh A7R5 @ [conc])
–	–	–	Fc1cnc(N2CC3CNCC(C2)O3)nc1Nc1ccc2[nH]ncc2c1 [Example 324, N-(2-((1,5)-9-oxa-3,7-diazabicyclo[3.3.1]nonan-3-yl)-5-fluoropyrimidin-4-yl)-1H-indazol-5-amine]	0.268 µM	71%	2080 nM	1.37 µM	–	–	–
–	–	–	Cc1c(Cl)nc(N2C3CCC2CNC3)nc1Nc1ccc2[nH]ncc2c1 [Example 315, N-(2-(3,8-diazabicyclo[3.2.1]octan-8-yl)-6-chloro-5-methylpyrimidin-4-yl)-1H-indazol-5-amine]	0.026 µM	–	168 nM	1.95 µM	–	–	–
–	–	–	CN1CCc2nc(N3C4CCC3CNC4)nc(Nc3ccc4[nH]ncc4c3)c2C1 [Example 299, 2-(3,8-diazabicyclo[3.2.1]octan-8-yl)-N-(1H-indazol-5-yl)-6-methyl-5,6,7,8-tetrahydropyrido[4,3-d]pyrimidin-4-amine]	0.034 µM	70%	1200 nM	> 10 µM	–	–	–
–	–	–	Fc1cc2[nH]ncc2cc1Nc1nc(N2C3CCC2CNC3)ncc1Cl [Example 296, N-(2-(3,8-diazabicyclo[3.2.1]octan-8-yl)-5-chloropyrimidin-4-yl)-6-fluoro-1H-indazol-5-amine]	0.11 µM	90%	860 nM	3.12 µM	–	–	–
–	–	–	c1cc2[nH]ncc2cc1Nc1nc(N2C3CCC2CNC3)nc2c1COC2 [Example 278, 2-(3,8-diazabicyclo[3.2.1]octan-8-yl)-N-(1H-indazol-5-yl)-5,7-dihydrofuro[3,4-d]pyrimidin-4-amine]	0.0066 µM	–	199 nM	1.44 µM	59.9%	–	–
–	–	–	Cc1nc(N2C3CNCC2C3)nc(Nc2ccc3[nH]ncc3c2)c1F [Example 301, N-(2-(3,6-diazabicyclo[3.1.1]heptan-6-yl)-5-fluoro-6-methylpyrimidin-4-yl)-1H-indazol-5-amine]	0.0004 µM	100%	16 nM	0.178 µM	–	–	–
–	–	–	CNC1CC2CC1CN2c1ncc(F)c(Nc2ccc3[nH]ncc3c2)n1 (centres unmarked) [Example 334, N-(5-fluoro-2-(5-(methylamino)-2-azabicyclo[2.2.1]heptan-2-yl)pyrimidin-4-yl)-1H-indazol-5-amine]	0.121 µM	–	889 nM	1.65 µM	–	–	–
–	–	–	c1cc2[nH]ncc2cc1Nc1nc(N2C3CNCC2C3)ncc1C1CC1 [Example 308, N-(2-(3,6-diazabicyclo[3.1.1]heptan-6-yl)-5-cyclopropylpyrimidin-4-yl)-1H-indazol-5-amine]	0.015 µM	–	377 nM	1.24 µM	–	–	–
99.1%	–	–	Fc1cnc(N2CCC3NCC3C2)nc1Nc1ccc2[nH]ncc2c1 (centres unmarked) [Example 170, N-(2-(3,7-diazabicyclo[4.2.0]octan-3-yl)-5-fluoropyrimidin-4-yl)-1H-indazol-5-amine]	0.027 µM	–	274 nM	0.572 µM	31.5%	–	–
–	–	–	FC(F)(F)c1cnc(N2C3CNCC2C3)nc1Nc1ccc2[nH]ncc2c1 [Example 304, N-(2-(3,6-diazabicyclo[3.1.1]heptan-6-yl)-5-(trifluoromethyl)pyrimidin-4-yl)-1H-indazol-5-amine]	0.017 µM	–	413 nM	0.98 µM	–	–	–
–	–	–	c1cc2[nH]ncc2cc1Nc1nc(N2C3CNCC2C3)nc2c1COCC2 [Example 307, 2-(3,6-diazabicyclo[3.1.1]heptan-6-yl)-N-(1H-indazol-5-yl)-7,8-dihydro-5H-pyrano[4,3-d]pyrimidin-4-amine]	0.0026 µM	–	977 nM	2.05 µM	–	–	–
–	–	–	Cc1cc(Nc2ccc3[nH]ncc3c2)nc(N2CCC3NCC3C2)n1 (centres unmarked) [Example 135, N-(2-(3,7-diazabicyclo[4.2.0]octan-3-yl)-6-methylpyrimidin-4-yl)-1H-indazol-5-amine]	0.0097 µM	–	400 nM	2.07 µM	48.4%	–	–
–	0.07 µM	517 nM	CC1CNCCN1c1ncc(F)c(Nc2ccc3[nH]ncc3c2)n1 (centres unmarked) [Example 216, N-(5-fluoro-2-(2-methylpiperazin-1-yl)pyrimidin-4-yl)-1H-indazol-5-amine]	–	–	–	–	42.6%	1.38 µM	–
100%	–	–	Fc1cnc(N2CC3CNC(C3)C2)nc1Nc1ccc2[nH]ncc2c1 (centres unmarked) [Example 166, N-(2-(3,6-diazabicyclo[3.2.1]octan-3-yl)-5-fluoropyrimidin-4-yl)-1H-indazol-5-amine]	–	–	259 nM	2.04 µM	34.3%	–	–
–	–	–	Fc1cc2[nH]ncc2cc1Nc1nc(N2C3CNCC2C3)ncc1Cl [Example 295, N-(2-(3,6-diazabicyclo[3.1.1]heptan-6-yl)-5-chloropyrimidin-4-yl)-6-fluoro-1H-indazol-5-amine]	0.045 µM	98%	646 nM	2.21 µM	–	–	–
101%	–	–	Cc1cc(Nc2ccc3[nH]ncc3c2)nc(N2CC3CNC(C3)C2)n1 (centres unmarked) [Example 129, N-(2-(3,6-diazabicyclo[3.2.1]octan-3-yl)-6-methylpyrimidin-4-yl)-1H-indazol-5-amine]	0.018 µM	–	377 nM	2.92 µM	50.6%	–	–
–	–	–	c1cc2[nH]ncc2cc1Nc1nc(N2C3CNCC2C3)nc2c1CNC2 [Example 310, 2-(3,6-diazabicyclo[3.1.1]heptan-6-yl)-N-(1H-indazol-5-yl)-6,7-dihydro-5H-pyrrolo[3,4-d]pyrimidin-4-amine]	0.0038 µM	–	> 5000 nM	> 5 µM	–	–	–
–	0.061 µM	415 nM	Cc1cc(Nc2ccc3[nH]ncc3c2)nc(N2CCNCC2)n1 [Example 205, N-(6-methyl-2-(piperazin-1-yl)pyrimidin-4-yl)-1H-indazol-5-amine]	–	–	–	–	–	1.28 µM	55%
–	–	–	Cc1nc(N2C3CCC2CNC3)nc(Nc2ccc3[nH]ncc3c2)c1C#N [Example 343, 4-((1H-indazol-5-yl)amino)-2-(3,8-diazabicyclo[3.2.1]octan-8-yl)-6-methylpyrimidine-5-carbonitrile]	0.0056 µM	–	127 nM	0.223 µM	–	–	–
–	–	–	CN(C)c1nc(N2C3CCC2CNC3)nc(Nc2ccc3[nH]ncc3c2)c1F [Example 342]	0.0001 µM	–	26 nM	1.95 µM	–	–	–
98.5%	0.245 µM	433 nM	Fc1cnc(N2CC3CCC2CN3)nc1Nc1ccc2[nH]ncc2c1 (centres unmarked) [Example 154, N-(2-(2,5-diazabicyclo[2.2.2]octan-2-yl)-5-fluoropyrimidin-4-yl)-1H-indazol-5-amine]	–	–	–	–	36.2%	2.91 µM	–
–	–	–	FC(F)(F)c1cc(Nc2ccc3[nH]ncc3c2)nc(N2C3CCC2CNC3)n1 [Example 341, N-(2-(3,8-diazabicyclo[3.2.1]octan-8-yl)-6-(trifluoromethyl)pyrimidin-4-yl)-1H-indazol-5-amine]	0.0058 µM	–	27 nM	0.058 µM	–	–	–
–	–	–	COc1cc2[nH]ncc2cc1Nc1nc(N2C3CNCC2C3)ncc1Cl [Example 297, N-(2-(3,6-diazabicyclo[3.1.1]heptan-6-yl)-5-chloropyrimidin-4-yl)-6-methoxy-1H-indazol-5-amine]	0.084 µM	87%	1430 nM	3.79 µM	–	–	–
95.6%	0.09 µM	382 nM	Cc1cc(Nc2ccc3[nH]ncc3c2)nc(N2CCNCC(C)C2)n1 (centres unmarked) [Example 118, N-(6-methyl-2-(6-methyl-1,4-diazepan-1-yl)pyrimidin-4-yl)-1H-indazol-5-amine]	–	–	–	–	32.9%	3.73 µM	–

SMILES	inhibition at 1 µM [1]	IC50 [1, 5]	IC50 ([2]; ppMlc (T18/S19))	IC50 [1]	inhibition at 0.5 µM [1]	IC50 [2]	IC50 ([3]; with TGFβ1, 24 hr)	inhibition at 1 µM [2, 4]	IC50 [3, 6]	inhibition at 10 µM ([2]; 10 μM compound, read-out: pMLC % inh A7R5 @ [conc])
Cc1cc(Nc2ccc3[nH]ncc3c2)nc(N2CC3CC2CN3)n1 (centres unmarked) [Example 211, N-(2-(2,5-diazabicyclo[2.2.1]heptan-2-yl)-6-methylpyrimidin-4-yl)-1H-indazol-5-amine]	104%	–	66 nM	–	–	–	–	35.8%	0.437 µM	–
